Experimental data: PubChem BioAssay (NCI)
“And” between values parts separate entries of the source, which are not always exact repeats. Equal values may be shown once.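 Tested at 5 concentrations; 48 h exposure; 96-well plates; endpoints linearly interpolated, else capped at highest concentration. GI50: concentration for 50% inhibition of growth. TGI is the concentration that stops growth completely.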

Assays:
Experiment in all cases: growth of human tumour cells (NCI), 48 h
[1] = system: TK-10 renal
[2] = system: LXFL 529 NSCLC
[3] = system: HOP-92 NSCLC
[4] = system: NCI-H460 lung
[5] = system: HOP-62 NSCLC
[6] = system: SF-539 CNS
[7] = system: DMS 114 small cell lung
[8] = system: SK-MEL-28 melanoma
[9] = system: A549 NSCLC
[10] = system: NCI/ADR-RES ovarian

| SMILES | TGI [1] | TGI [2] [µM] | TGI [3] | TGI [4] | TGI [5] | TGI [6] | TGI [7] [µM] | TGI [8] [µM] | TGI [9] | TGI [10] [µM] | GI50 [1] | GI50 [8] | GI50 [6] [µM] |
| --- | --- | --- | --- | --- | --- | --- | --- | --- | --- | --- | --- | --- | --- |
| O=C1CCC2(c3ccc(F)cc3)Nc3ccccc3N12 (stereo unspecified) | > 100 µM | > 100 | > 100 µM | > 100 µM | > 100 µM | > 100 µM | > 100 | > 100 | > 100 µM |  |  |  |  |
| O=c1cc2n(c(=O)[nH]1)C1OC(C(O)C1O)[C@@H]2CCO (stereo partly specified) | > 100 µM | > 100 | > 100 µM | > 100 µM | > 100 µM | > 100 µM | > 100 | > 100 | > 100 µM |  |  |  |  |
| Cc1c(Cl)ccc2c1NC(=O)C2(O)CC(=O)c1ccc(Cl)cc1Cl (stereo unspecified) | > 50 µM | > 50 | > 50 µM | > 50 µM | > 50 µM | > 50 µM | > 50 | > 50 | > 50 µM | > 50 |  |  |  |
| COc1ccc(CC(=O)c2cc(OC)c(OC)cc2C)cc1OC | > 100 µM | > 100 |  | > 100 µM | > 100 µM |  | > 100 | > 100 | > 100 µM |  |  |  |  |
| Cc1cccc(C)c1NC(=O)CCC(=O)NNC(=O)c1cc(O)c2ccccc2c1 | > 100 µM | > 100 | > 100 µM | > 100 µM | > 100 µM | 78.2 µM | 65.2 | > 100 | > 100 µM |  |  |  |  |
| Cc1c(/C=C2\CC/C(=C\c3[nH]c(C(=O)OC(C)(C)C)c(C)c3C)C2=O)[nH]c(C(=O)OC(C)(C)C)c1C | > 100 µM | > 100 | > 100 µM | > 100 µM | > 100 µM | > 100 µM | > 100 |  | > 100 µM |  |  |  |  |
| CCc1nc2c(O)ccc(O)c2nc1C | 37.1 µM | 15.8 | 13.7 µM | 36.1 µM | 32.3 µM | 31.4 µM | 36.1 | 34.4 | 44.5 µM |  |  |  |  |
| Cc1c(Cl)cccc1NC(=O)CC1Sc2ccccc2NC1=O (stereo unspecified) | 49.6 µM and > 100 µM | > 100 | 42.9 µM and 64 µM | 61.5 µM and 62.5 µM | 42.3 µM and 31.1 µM | 45.1 µM and 36.2 µM | > 100 | > 100 | 54.2 µM and > 100 µM | 58.9 | 20.8 µM and 48.2 µM | 27.4 µM and 55 µM |  |
| COc1ccc(CNc2cc(OC)cc(OC)c2)cc1 | > 100 µM | > 100 | > 100 µM | > 100 µM | > 100 µM | > 100 µM | > 100 | > 100 | > 100 µM |  |  |  | > 90.2 |
| CN(C)CCC1(C2=CCCC2)CC/C(=C\c2ccc3c(c2)OCO3)C1=O (stereo unspecified) | 29.2 µM | 25.5 | 24.4 µM | 36.2 µM |  | 30.2 µM | 32.7 | 27.4 | 31.8 µM |  |  |  |  |
| N#C/C(=C\c1ccc(CP(=O)(O)O)cc1)C(N)=O | > 100 µM | > 100 | > 100 µM | > 100 µM | > 100 µM | > 100 µM | > 100 | > 100 | > 100 µM |  |  |  |  |
| CS(=O)(=O)C1S(=O)(=O)OCCOS1(=O)=O | > 100 µM | > 100 | > 100 µM | > 100 µM | > 100 µM | > 100 µM | > 100 | > 100 | > 100 µM |  |  |  |  |
| O=C(Cc1ccccc1)Oc1ccc2c(-c3ccccc3)c(C(=O)Nc3ccc(Cl)cc3)c(=O)oc2c1 | > 100 µM | > 100 | > 100 µM | > 100 µM | > 100 µM | > 100 µM | > 100 | > 100 | > 100 µM |  |  |  |  |
| CC(C)(C)c1nc2c(o1)C(=Nc1ccccc1)c1ccccc1C2=O | 59.6 µM | 50.1 | 23.8 µM | 19.9 µM | 31 µM | 8.5 µM |  | 10.8 | 23.5 µM |  |  |  |  |
